Reference: publication PMC6592956, “Characterization of Porcine Hepatic and Intestinal Drug Metabolizing CYP450: Comparison with Human Orthologues from A Quantitative, Activity and Selectivity Perspective” (Scientific Reports, 2019)
Marks after values point to notes of the source that are not given here. Blank lines part the entries; values can stand above or below the molecule they belong to.

What was measured:
CYP2C9/19 = details: cited from earlier work
Experimental: (§1) The inhibitors used were α-NFV, 8-MPS, KET, SFZ, QND, and DDC for CYP1A/2 A, CYP2A, CYP3A, CYP2C, CYP2D, and CYP2E1, respectively. […] All incubations were performed in triplicate.

[1] = tested on: porcine intestinal CYP450 enzymes; test: in vitro; details: pig, duodenal microsomes
[2] = tested on: porcine intestinal CYP450 enzymes; details: intestinal versus hepatic microsomes
[3] = tested on: hepatic CYP450 abundancies; test: Pearson correlation between hepatic CYP450 abundancies and probe activities
CYP2C [4] = tested on: T1, CYP2C; test: Group mean of log10 Km (Km in µM) for porcine hepatic microsomes from 8 male pigs, probe metabolism at 37 °C, LC-MS/MS.; format: biochemical, pig liver microsomes; details: n = 8
T1 construct: native enzymes in hepatic or duodenal microsomes

CYP2C [5] = tested on: T1, CYP2C; test: Group mean of log10 Km (Km in µM) for porcine hepatic microsomes from 8 female pigs, probe metabolism at 37 °C, LC-MS/MS.; format: biochemical, pig liver microsomes; details: n = 8
porcine CYP450 = details: outcome of general decision tree, Figure 4
CYP2E = test: Incubation with inhibitors: CZ-hydroxylation in porcine hepatic microsomes; format: in vitro ADME, conventional pig
Experimental: as §1

CYP1A = test: Incubation with inhibitors: PH-O-deethylation in porcine hepatic microsomes; format: in vitro ADME, conventional pig
Experimental: as §1

CYP2A = test: Incubation with inhibitors: CM-hydroxylation in porcine hepatic microsomes; format: in vitro ADME, conventional pig
Experimental: as §1

CYP3A = test: Incubation with inhibitors: MDZ-hydroxylation in porcine hepatic microsomes; format: in vitro ADME, conventional pig; details: MDZ 20 µM; inhibitors SFZ 0.5, α-NFV 0.1 (1 µM), QND 0.1, KET 0.3, DDC 20, 8-MPS 1 µM; mean (SD) of 3
Experimental: as §1

CYP2D = target: T2, CYP2D (Sus scrofa, UniProt O46658); test: Incubation with inhibitors: DXM-O-demethylation in porcine hepatic microsomes; format: in vitro ADME, conventional pig; details: DXM 10 µM; inhibitors SFZ 0.5, α-NFV 0.1 (1 µM), QND 0.1, KET 0.3, DDC 20, 8-MPS 1 µM; mean (SD) of 3
T2 construct: from tissue; host or cells: pig liver microsomes
T2 sequence (O46658 1-500): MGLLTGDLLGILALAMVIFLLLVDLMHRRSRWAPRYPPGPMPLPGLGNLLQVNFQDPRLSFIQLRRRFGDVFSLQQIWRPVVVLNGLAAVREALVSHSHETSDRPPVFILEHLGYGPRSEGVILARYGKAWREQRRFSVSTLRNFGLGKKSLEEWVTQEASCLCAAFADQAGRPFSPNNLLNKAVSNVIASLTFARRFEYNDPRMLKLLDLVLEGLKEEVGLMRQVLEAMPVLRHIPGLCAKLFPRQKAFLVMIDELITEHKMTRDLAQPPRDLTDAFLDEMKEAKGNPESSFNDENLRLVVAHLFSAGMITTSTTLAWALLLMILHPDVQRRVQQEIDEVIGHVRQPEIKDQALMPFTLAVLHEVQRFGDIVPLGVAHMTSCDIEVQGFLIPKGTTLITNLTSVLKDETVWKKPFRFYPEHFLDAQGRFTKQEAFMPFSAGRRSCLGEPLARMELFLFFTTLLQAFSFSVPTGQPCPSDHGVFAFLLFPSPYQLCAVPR
Experimental: as §1

CYP2C [6] = details: TB 200 µM; inhibitors SFZ 0.5, α-NFV 0.1 (1 µM), QND 0.1, KET 0.3, DDC 20, 8-MPS 1 µM; mean (SD) of 3

Molecule: Nc1ccc(S(=O)(=O)Nc2ccnn2-c2ccccc2)cc1 [SFZ, sulphaphenazole]
Ki (CYP2C9/19): 120 to 700 nM

Km at 10 min [1]: 1410 µM | Vmax in intestinal microsomes as % of the hepatic Vmax [2]: 2% | Pearson's correlation coefficient, TB activity vs hepatic CYP2C33 abundance ([3]; level 1 (TB 5.00 µM)): 0.53 | Pearson's correlation coefficient, TB activity vs hepatic CYP2C49 abundance ([3]; level 1 (TB 5.00 µM)): 0.64* | Pearson's correlation coefficient, TB activity vs hepatic CYP2C33 abundance ([3]; level 2 (TB 10.0 µM)): 0.55 | Pearson's correlation coefficient, TB activity vs hepatic CYP2C49 abundance ([3]; level 2 (TB 10.0 µM)): 0.65* | Pearson's correlation coefficient, TB activity vs hepatic CYP2C33 abundance ([3]; level 3 (TB 50.0 µM)): 0.62* | Pearson's correlation coefficient, TB activity vs hepatic CYP2C49 abundance ([3]; level 3 (TB 50.0 µM)): 0.68* | Pearson's correlation coefficient, TB activity vs hepatic CYP2C33 abundance ([3]; level 4 (TB 100 µM)): 0.62* | Pearson's correlation coefficient, TB activity vs hepatic CYP2C49 abundance ([3]; level 4 (TB 100 µM)): 0.71* | Pearson's correlation coefficient, TB activity vs hepatic CYP2C33 abundance ([3]; level 5 (TB 200 µM)): 0.62* | Pearson's correlation coefficient, TB activity vs hepatic CYP2C49 abundance ([3]; level 5 (TB 200 µM)): 0.69* | Pearson's correlation coefficient, TB activity vs hepatic CYP2C33 abundance ([3]; level 6 (TB 400 µM)): 0.61 | Pearson's correlation coefficient, TB activity vs hepatic CYP2C49 abundance ([3]; level 6 (TB 400 µM)): 0.72* | log_Km, male (CYP2C [4]): 3,0641 | log_Km, female (CYP2C [5]): 3,3239 | Enzyme involvement: Low affinity (porcine CYP450): CYP2C, CYP3A
Molecule: CCCCNC(=O)NS(=O)(=O)c1ccc(C)cc1 [TB, tolbutamide]

Ratio of residual activity (substrate + inhibitor versus substrate only), CYP2E CZ (CYP2E; CZ 50 µM, inhibitors SFZ 0.5, α-NFV 0.1 (1 µM), QND 0.1, KET 0.3, DDC 20, 8-MPS 1 µM, mean (SD) of 3): 1.06 (0.057) | Inhibition of CZ-hydroxylation by inhibitor (CYP2E; porcine hepatic microsomes): did not inhibit | Ratio of residual activity (substrate + inhibitor versus substrate only), CYP1A PH (CYP1A; PH 20 µM, inhibitors SFZ 0.5, α-NFV 0.1 (1 µM), QND 0.1, KET 0.3, DDC 20, 8-MPS 1 µM, mean (SD) of 3): 0.76 (0.011) | PH-O-deethylation (CYP1A2) activity, % of the control value (CYP1A; inhibitor increased to 1 µM): 76% | inhibition at 0.1 µM (CYP1A; pig, probe phenacetin 20 µM (PH-O-deethylation), porcine hepatic microsomes, read-out: Inhibition of PH-O-deethylation by inhibitor): 24% | Ratio of residual activity (substrate + inhibitor versus substrate only), CYP2A CM (CYP2A; CM 1 µM, inhibitors SFZ 0.5, α-NFV 0.1 (1 µM), QND 0.1, KET 0.3, DDC 20, 8-MPS 1 µM, mean (SD) of 3): 0.94 (0.131) | inhibition at 1 µM (CYP2A; pig, porcine hepatic microsomes, probe coumarin 1 µM (CM-hydroxylation), inhibitor 1 µM, read-out: Maximal inhibition of other reactions (CM)): 4% | Inhibition of CM-hydroxylation by inhibitor (CYP2A; porcine hepatic microsomes): 5% | Ratio of residual activity (substrate + inhibitor versus substrate only), CYP3A MDZ (CYP3A): 1.08 (0.048) | Ratio of residual activity (substrate + inhibitor versus substrate only), CYP2D DXM (CYP2D): 1.02 (0.143) | Ratio of residual activity (substrate + inhibitor versus substrate only), CYP2C TB (CYP2C [6]): 1.13 (0.099)
Molecule: O=c1cc(-c2ccccc2)oc2c1ccc1ccccc12 [α-naphthoflavone]

B1: CYP2D25 (protein, UniProt O46658 2-500, looked up)
Vitamin D(3) 25-hydroxylase: GLLTGDLLGILALAMVIFLLLVDLMHRRSRWAPRYPPGPMPLPGLGNLLQVNFQDPRLSFIQLRRRFGDVFSLQQIWRPVVVLNGLAAVREALVSHSHETSDRPPVFILEHLGYGPRSEGVILARYGKAWREQRRFSVSTLRNFGLGKKSLEEWVTQEASCLCAAFADQAGRPFSPNNLLNKAVSNVIASLTFARRFEYNDPRMLKLLDLVLEGLKEEVGLMRQVLEAMPVLRHIPGLCAKLFPRQKAFLVMIDELITEHKMTRDLAQPPRDLTDAFLDEMKEAKGNPESSFNDENLRLVVAHLFSAGMITTSTTLAWALLLMILHPDVQRRVQQEIDEVIGHVRQPEIKDQALMPFTLAVLHEVQRFGDIVPLGVAHMTSCDIEVQGFLIPKGTTLITNLTSVLKDETVWKKPFRFYPEHFLDAQGRFTKQEAFMPFSAGRRSCLGEPLARMELFLFFTTLLQAFSFSVPTGQPCPSDHGVFAFLLFPSPYQLCAVPR
log abundance, Mean Difference (t-test for Equality of Means) (hepatic CYP450): ,05407 | log abundance, Sig. (2-tailed) (hepatic CYP450): ,497

B2: CYP3A29 (protein, UniProt P79401 1-503, looked up)
Cytochrome P450 3A29: MDLIPGFSTETWVLLATSLVLLYLYGTYSHGLFKKLGIPGPRPLPYFGNILGYRKGVDHFDKKCFQQYGKMWGVYDGRQPLLAVTDPNMIKSVLVKECYSVFTNRRSFGPLGAMRNALSLAEDEEWKRIRTLLSPTFTSGKLKEMFPIISHYGDLLVSNLRKEAEKGKPVTMKDIFGAYSMDVITSTAFGVNIDSLNNPQDPFVENSKKLLKFSFFDPFLLSLIFFPFLTPIFEVLNITLFPKSSVNFFTKSVKRMKESRLTDQQKRRVDLLQLMINSQNSKEMDPHKSLSNEELVAQGIIFIFAGYETTSSALSLLAYELATHPDVQQKLQEEIEATFPNKAPPTYDALAQMEYLDMVVNETLRLYPIAARLERACKKDVEIHGVFVPKGTVVVVPVFVLHRDPDLWPEPEEFRPERFSKKHKDTINPYTYLPFGTGPRNCIGMRFALMNMKLALVRVLQNFSFKPCKETQIPLKLTTQGLTQPEKPVVLKILPRDGTVSGA
Amount (hepatic CYP450): 4.74 pmol/mg protein
